Reference: the supplement of paper PMC10307832

What was measured:
Assay in all cases: relative viability (nuclei count vs DMSO), 5 days (fraction); higher = more cells survive
AZD5582 + Navitoclax = compound: C[C@@H](C(=O)N[C@@H](C1CCCCC1)C(=O)N2CCC[C@H]2C(=O)N[C@@H]3[C@@H](CC4=CC=CC=C34)OCC#CC#CCO[C@@H]5CC6=CC=CC=C6[C@@H]5NC(=O)[C@@H]7CCCN7C(=O)[C@H](C8CCCCC8)NC(=O)[C@H](C)NC)NC [AZD5582] + CC1(C)CCC(c2ccc(Cl)cc2)=C(CN2CCN(c3ccc(C(=O)NS(=O)(=O)c4ccc(N[C@H](CCN5CCOCC5)CSc5ccccc5)c(S(=O)(=O)C(F)(F)F)c4)cc3)CC2)C1 [Navitoclax] (partner 0.5 µM)
Summary of the method: (§1)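 Cells from lung cancer lines were seeded into 1536-well plates and, one day later, dosed by pin tool. Treatments were either a single drug or a fixed dose of an anchor drug with five library-drug doses (not always all listed) in √10 steps. After 5 days, nuclei were stained in a one-step fixation (final 0.05% Triton X-100, 1% formaldehyde, 1 ug/ml Hoechst) and counted on 4× images, and relative viability is the treated-to-vehicle nuclei ratio, as the median of duplicate plates.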

AZD5582 + Phenformin = compound: C[C@@H](C(=O)N[C@@H](C1CCCCC1)C(=O)N2CCC[C@H]2C(=O)N[C@@H]3[C@@H](CC4=CC=CC=C34)OCC#CC#CCO[C@@H]5CC6=CC=CC=C6[C@@H]5NC(=O)[C@@H]7CCCN7C(=O)[C@H](C8CCCCC8)NC(=O)[C@H](C)NC)NC [AZD5582] + N=C(N)NC(=N)NCCc1ccccc1 [Phenformin] (partner 250 µM)
Summary of the method: as §1

[1] = compound: Cn1nnc2c(C(N)=O)ncn2c1=O [Temozolomide] + CCNC(=O)c1noc(-c2cc(C(C)C)c(O)cc2O)c1-c1ccc(CN2CCOCC2)cc1 [Luminespib] (partner 0.01 µM)
Summary of the method: as §1

Temozolomide + Alpelisib = compound: Cn1nnc2c(C(N)=O)ncn2c1=O [Temozolomide] + Cc1nc(NC(=O)N2CCC[C@H]2C(N)=O)sc1-c1ccnc(C(C)(C)C(F)(F)F)c1 [Alpelisib] (partner 2 µM)
Summary of the method: as §1

Cell Line | relative viability (AZD5582 + Navitoclax; first compound 0.001581 µM) | relative viability (AZD5582 + Navitoclax; first compound 0.005 µM) | relative viability (AZD5582 + Navitoclax; first compound 0.01581 µM) | relative viability (AZD5582 + Navitoclax; first compound 0.05 µM) | relative viability (AZD5582 + Phenformin; first compound 0.001581 µM) | relative viability (AZD5582 + Phenformin; first compound 0.005 µM) | relative viability (AZD5582 + Phenformin; first compound 0.01581 µM) | relative viability (AZD5582 + Phenformin; first compound 0.05 µM) | relative viability ([1]; first compound 0.2 µM) | relative viability ([1]; first compound 0.6325 µM) | relative viability ([1]; first compound 2 µM) | relative viability ([1]; first compound 6.325 µM) | relative viability ([1]; first compound 20 µM) | relative viability (Temozolomide + Alpelisib; first compound 0.2 µM) | relative viability (Temozolomide + Alpelisib; first compound 0.6325 µM) | relative viability (Temozolomide + Alpelisib; first compound 2 µM) | relative viability (Temozolomide + Alpelisib; first compound 6.325 µM) | relative viability (Temozolomide + Alpelisib; first compound 20 µM)
NCI-H1944 | 0.985 | 1.13 | 1.08 | 1.11 | 0.176 | 0.227 | 0.193 | 0.286 | 0.59 | 0.829 | 0.907 | 0.729 | 0.711 | 0.654 | 0.808 | 0.946 | 0.786 | 0.624
NCI-H1975 | 1.12 | 1.19 | 1.18 | 1.2 | 0.416 | 0.457 | 0.393 | 0.452 | – | 0.23 | 0.487 | 0.131 | 0.172 | 0.711 | 0.712 | 0.718 | 0.642 | 0.676
NCI-H1993 | 0.917 | 0.936 | 0.876 | 0.922 | 0.535 | 0.464 | 0.483 | 0.532 | 0.856 | 0.783 | 0.764 | 0.75 | 0.824 | 0.678 | 0.734 | 0.742 | 0.693 | 0.64
NCI-H2009 | 1.14 | 1.21 | 1.15 | 1.18 | 0.445 | 0.534 | 0.454 | 0.451 | 1.08 | 1.04 | 1.02 | 0.971 | 0.983 | 1.15 | 1.17 | 1.21 | 1.11 | 1.24
